Holding throughout (assay type): cell-based, mouse
Data set [1] deals with day 17 EB derived hepatocyte lineage cells (ES cell line D3). Kind of data set: Glycogen storage. On the set-up: key to Glycogen: A (+) represents at least one time point of significant expression or secretion function in the three conditions.; A (−) represents functions which were absent on all experimental days.
The test system is the same in data set [2]. Kind of data set: Urea secretion. On the set-up: key to Urea: A (+) represents at least one time point of significant expression or secretion function in the three conditions.; A (−) represents functions which were absent on all experimental days. The method, then:
(§1) In order to induce differentiation, cells were suspended in Iscove's modified Dulbecco's medium (Gibco) containing 20% fetal bovine serum (Gibco), 4 mM L-glutamine (Gibco), 100 U/ml penicillin, 100 U/ml streptomycin (Gibco), 10 ug/ml gentamicin (Gibco). Embryoid bodies were formed and cultured for two days using the hanging drop method (1×10^3 ES cells per 30 ul drop). Hanging drops where transferred to suspension culture in 100 mm petri dishes and cultured for an additional 2 days. The EB's were then plated, one EB per well, in 6 well tissue culture polystyrene plates (BD-Biosciences) for an additional 14 days. For secondary culture day 17 EBs cells were detached following incubation with 0.5 ml of trypsin (Gibco) for three minutes, resulting in a single cell suspension, and subsequently the addition of IMDM media. Cells from day 17 EB's were used because it has been observed that hepatocyte function is greatest on day 17. Cells were then re-plated in 6 well tissue culture polystyrene (BD-Biosciences) at an initial seeding density of 5×10^4 day 17 cells per well for further analysis. […]
Media samples were collected on all analysis days. […] Absorbance readings were obtained using a Biorad (Hercules, Calif.) Model 680 plate reader with a 585 nm emission filter. Urea values were normalized to the cell number recorded on the day of media sample collection.

The test system is the same in data set [3]. Put plainly: Sandwich ELISA for detection of albumin secretion. On the set-up: key to ALB Secretion: A (+) represents at least one time point of significant expression or secretion function in the three conditions.; A (−) represents functions which were absent on all experimental days. The method, then: as §1, with “17.” for “17. Cells were then re-plated in 6 well tissue culture polystyrene (BD-Biosciences) at an initial seeding density of 5×10^4 day 17 cells per well for further analysis.”
In order to detect secreted albumin within the media supernatants obtained on each of the analysis days, we used a commercially available mouse albumin ELISA kit (Bethyl Laboratories, #E90-134). […] Absorbance readings were obtained using a Biorad (Hercules, Calif.) Model 680 plate reader with a 450 nm emission filter. Albumin values were normalized to the cell number recorded on the day of media sample collection.
Background: An ELISA detects its analyte on a solid surface through an enzyme-linked reagent.

Data set [4] shares this test system. Put plainly: Cell number / proliferation in secondary culture. Conditions: collagen sandwich configuration, within 10 days. The method, then: as §1, with “media.” for “media. Cells from day 17 EB's were used because it has been observed that hepatocyte function is greatest on day 17. Cells were then re-plated in 6 well tissue culture polystyrene (BD-Biosciences) at an initial seeding density of 5×10^4 day 17 cells per well for further analysis.”
Therefore, cultures were established to study the maintenance and augmentation of hepatocyte like function previously observed after 17 days of spontaneous EB mediated differentiation. Hepatocyte lineage maintenance was initially assessed by examining the dynamics of cell growth following removal of cells from their primary EB culture and re-plating into tissue culture polystyrene. 5×10^4 cells from day 17 EB cultures were re-plated into one well of a six well plate and evaluated on days 4, 6, 8 and 10 days post re-plating. […]

The test system is the same in data set [5]. Put plainly: In situ indirect immunofluorescent intracellular albumin analysis. On the set-up: key to Intracellular ALB: A (+) represents at least one time point of significant expression or secretion function in the three conditions.; A (−) represents functions which were absent on all experimental days. The method, then:
as §1, with “analysis. Culture medium was changed every forty eight hours. When OSM and SNAP were supplemented, 10 ng/ml OSM and 250 μM SNAP were added to the culture medium. When collagen sandwich culture was used, rat tail type I collagen (BD-Biosciences) gels were prepared by distributing 350 μL of collagen gel solution (3 parts 1.33×DMEM, pH 7.4, and 1 part collagen solution at 4 mg/mL, chilled on ice and mixed immediately prior to use) evenly over one well of a six well plate (BD-Biosciences) and incubated at 37° C. for at least one hour before use. 5×10^5 cells were seeded in 2 mL of IMDM media on day 0 and an additional 350 μL of collagen gel solution was distributed over the cells after 1 day of culture. Therefore, the second layer of collagen is added on day 1 of secondary culture protocol. One hour of incubation at 37° C. was allowed for gelation and attachment of the second gel layer before the medium was replaced. Culture medium was changed every forty eight hours.” for “analysis.”

The test system is the same in data set [6]. Put plainly: Cytochrome P450 activity (resorufin o-dealkylase, BROD/MROD). On the set-up: key to CYP450: A (+) represents at least one time point of significant expression or secretion function in the three conditions.; A (−) represents functions which were absent on all experimental days. The method, then:
On evaluation days 4, 6, 8 and 10 days in secondary culture, cells were re-plated into 12 well plates. 3-Methylcholanthrene was used at a concentration of 2 μM (Sigma-Aldrich) for 48 hours prior to the addition of resorufin as an inducer of cytochrome P450 activities. Cytochrome P450-dependent resorufin o-dealkylase activity (BROD, PROD, EROD, and MROD) was measured using resorufin substrates namely pentoxy-, benzyloxy-, ethoxy-, and methoxyresorufin from a Resorufin Sampler Kit (Invitorgen, Carlsbad, Calif.). […] The fluorescence of the plate was measured using a fluorescence plate reader (DTX880, Beckman Coltour, Fullerton, Calif., ext. 530 nm and emis. 590 nm) at the end of min incubation. A standard curve of resorufin fluorescence was constructed using concentrations ranging from 1 to 1,000 nmol in EBSS. […] The constructed standard curve was used to convert the fluorescence values obtained from the plate reader to nanomoles of resorufin. Rate of formation of resorufin, as calculated from the early linear increase in the fluorescence curve, was defined as cytochrome P450 activity and expressed as nmol/min.
Cytochrome P450 enzymes play a key role in detoxifying xenobiotics and were used in these studies to asses hepatocyte function. […] BROD and MROD activity can be determined from the enzymatic conversion of resorufin.

The test system is the same in data set [7]. Kind of data set: In situ indirect immunofluorescent cytokeratin-18 analysis. On the set-up: key to CK18: A (+) represents at least one time point of significant expression or secretion function in the three conditions.; A (−) represents functions which were absent on all experimental days. The method, then: as §1, with “analysis. Culture medium was changed every forty eight hours. When OSM and SNAP were supplemented, 10 ng/ml OSM and 250 μM SNAP were added to the culture medium.” for “analysis.”

Setting [8] is: polystyrene culture, OSM or SNAP supplemented.
The mark [9] stands for this setting: polystyrene secondary culture, 10 ng/ml OSM or 250 μM SNAP, days 4-10.

As for Oncostatin-M [OSM], the glycogen storage entry in data set [1] (setting [8]) was “not detected at any level”. Besides, the Glycogen entry in data set [1] (setting [9]) is recorded as “−”. Moreover, the “Urea secretion time course” value in data set [2] (polystyrene culture, supplemented) was “greatest at day eight”. For the same substance, in data set [2] (setting [9]), the Urea result is on record as “+”. Moreover, the albumin secretion result in data set [3] (setting [8]) is given as “not detected at any level”. Also, in data set [3] (setting [9]), the “ALB Secretion” value is “−”. Moreover, the “cell number reached from 5×10^4 Day 17 cells” value in data set [4] is 1×10^6 cells. For the same substance, the “albumin expression (percentage of cells expressing albumin)” value in data set [5] (collagen sandwich culture, 10 days post re-plating) is reported as 80%. In data set [5] (setting [9]), the “Intracellular ALB” value was “+”. In addition, the “Time for which ALB expression was maintained” value in data set [5] (polystyrene secondary/tertiary culture, supplemented, SNAP at a lower level) is “up to eight”. The CYP450 mediated detoxification entry in data set [6] (setting [8]) is listed as “not detected at any level”. The CYP450 entry in data set [6] (setting [9]) is “−”. Moreover, the CK18 expression result in data set [7] (setting [8]) is “not detected at any level”. Moreover, in data set [7] (setting [9]), the CK18 entry was “−”.

Source of the values: US20110014260A1, “SYSTEM AND METHOD FOR LIVER CELL CULTURE AND MATURATION” (priority 2007, published 2011).
